Laboratory results from patent publication US11292821B2, “Peptides and combination of peptides for use in immunotherapy against lung cancer, including NSCLC, SCLC and other cancers” (Immatics Biotechnologies GmbH, priority 2017, dated 2022).

Each substance was assayed on HLA-A*01 (assay: MHC binding assay (UV-ligand exchange, β2m ELISA)).
Parameters: species or system human
Source text: Candidate peptides for T cell based therapies according to the present invention were further tested for their MHC binding capacity (affinity). The individual peptide-MHC complexes were produced by UV-ligand exchange, where a UV-sensitive peptide is cleaved upon UV-irradiation, and exchanged with the peptide of interest as analyzed. Only peptide candidates that can effectively bind and stabilize the peptide-receptive MHC molecules prevent dissociation of the MHC complexes. To determine the yield of the exchange reaction, an ELISA was performed based on the detection of the light chain (β2m) of stabilized MHC complexes. The assay was performed as generally described in Rodenko et al. (Rodenko et al., 2006).
96 well MAXISorp plates (NUNC) were coated over night with 2 ug/ml streptavidin in PBS at room temperature, washed 4× and blocked for 1 h at 37° C. in 2% BSA containing blocking buffer. […] Peptide-MHC monomers of the UV-exchange reaction were diluted 100-fold in blocking buffer. Samples were incubated for 1 h at 37° C., washed four times, incubated with 2 ug/ml HRP conjugated anti-β2m for 1h at 37° C., washed again and detected with TMB solution that is stopped with […]. Absorption was measured at 450 nm. Candidate peptides that show a high exchange yield (preferably higher than 50%, most preferred higher than 75%) are generally preferred for a generation and production of antibodies or fragments thereof, and/or T cell receptors or fragments thereof, as they show sufficient avidity to the MHC molecules and prevent dissociation of the MHC complexes.
In the case of “439 (TLDAGKFQIY; listed as Homo sapiens) [compound 439]”, the “Peptide exchange (peptide exchange yield, MHC class I binding score)” value (shortened to “Peptide exchange”) is reported as ““+++” (>50 = +++)”. For “440 (TLDENPGVRY; listed as Homo sapiens) [compound 440]”, the “Peptide exchange” value was ““+++” (>50 = +++)”. In the case of “441 (TLDSALNAASYY; listed as Homo sapiens) [compound 441]”, the “Peptide exchange” value is reported as ““++++” (>75% = ++++)”. With “442 (TSDFSRFTNY; listed as Homo sapiens) [compound 442]” the “Peptide exchange” value was ““++++” (>75% = ++++)”. In the case of “443 (TTDFPSESSFEY; listed as Homo sapiens) [compound 443]”, the “Peptide exchange” value is reported as ““++++” (>75% = ++++)”. “444 (TTDTVIRSY; listed as Homo sapiens) [compound 444]” was tested, and the “Peptide exchange” value was ““+++” (>50 = +++)”. “445 (VLDQGKITEY; listed as Homo sapiens) [compound 445]” was tested, and the “Peptide exchange” value was ““+++” (>50 = +++)”. In the case of “446 (VTAQVVGTERY; listed as Homo sapiens) [compound 446]”, the “Peptide exchange” value is reported as ““++++” (>75% = ++++)”. With “447 (VVDEDHELIY; listed as Homo sapiens) [compound 447]” the “Peptide exchange” value was ““+++” (>50 = +++)”. For “448 (YLDIPNPRY; listed as Homo sapiens) [compound 448]”, the “Peptide exchange” value was ““+++” (>50 = +++)”. “449 (YLDRGTGNVSFY; listed as Homo sapiens) [compound 449]” was tested, and the “Peptide exchange” value was ““++++” (>75% = ++++)”. With “450 (YSDDGQKWTVY; listed as Homo sapiens) [compound 450]” the “Peptide exchange” value was ““++++” (>75% = ++++)”.
